Here are results for 20 molecules from ChEMBL document CHEMBL1144263, “Synthesis and acetylcholinesterase inhibition of derivatives of huperzine B” (Bioorg Med Chem Lett, 2005).

The term IC50 denotes the concentration that inhibits the measured activity by half. A high value points to weaker potency.

For one assay, the target named is T1, Acetylcholinesterase (Rattus norvegicus, UniProt P37136).
T1 sequence (P37136 whole entry): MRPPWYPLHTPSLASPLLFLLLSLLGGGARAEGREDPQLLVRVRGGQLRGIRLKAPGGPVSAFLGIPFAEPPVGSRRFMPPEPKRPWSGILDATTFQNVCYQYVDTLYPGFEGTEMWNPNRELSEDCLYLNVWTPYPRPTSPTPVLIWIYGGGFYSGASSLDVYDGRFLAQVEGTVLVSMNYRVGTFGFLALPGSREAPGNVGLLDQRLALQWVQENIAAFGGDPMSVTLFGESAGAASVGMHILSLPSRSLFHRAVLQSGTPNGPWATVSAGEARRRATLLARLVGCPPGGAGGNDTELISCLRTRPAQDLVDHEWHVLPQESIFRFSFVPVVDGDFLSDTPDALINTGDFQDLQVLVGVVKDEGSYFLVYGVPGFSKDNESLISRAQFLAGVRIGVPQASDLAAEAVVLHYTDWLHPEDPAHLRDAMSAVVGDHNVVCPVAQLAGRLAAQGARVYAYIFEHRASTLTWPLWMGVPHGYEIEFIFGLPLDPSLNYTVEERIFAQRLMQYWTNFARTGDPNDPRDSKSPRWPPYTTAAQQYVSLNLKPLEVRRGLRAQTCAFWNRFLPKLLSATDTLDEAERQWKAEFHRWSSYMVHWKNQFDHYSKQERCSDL
The experiment in a line: Inhibitory concentration against acetylcholinesterase from rat cortex homogenate by ellman method was determined. For orientation: DTNB colorimetry detects thiols as they appear.

The target of the next assay is Butyrylcholinesterase (Rattus norvegicus, UniProt Q9JKC1). The experiment in a line: Inhibitory concentration against butyrylcholinesterase from rat serum.
Chain of Butyrylcholinesterase (Q9JKC1 whole entry): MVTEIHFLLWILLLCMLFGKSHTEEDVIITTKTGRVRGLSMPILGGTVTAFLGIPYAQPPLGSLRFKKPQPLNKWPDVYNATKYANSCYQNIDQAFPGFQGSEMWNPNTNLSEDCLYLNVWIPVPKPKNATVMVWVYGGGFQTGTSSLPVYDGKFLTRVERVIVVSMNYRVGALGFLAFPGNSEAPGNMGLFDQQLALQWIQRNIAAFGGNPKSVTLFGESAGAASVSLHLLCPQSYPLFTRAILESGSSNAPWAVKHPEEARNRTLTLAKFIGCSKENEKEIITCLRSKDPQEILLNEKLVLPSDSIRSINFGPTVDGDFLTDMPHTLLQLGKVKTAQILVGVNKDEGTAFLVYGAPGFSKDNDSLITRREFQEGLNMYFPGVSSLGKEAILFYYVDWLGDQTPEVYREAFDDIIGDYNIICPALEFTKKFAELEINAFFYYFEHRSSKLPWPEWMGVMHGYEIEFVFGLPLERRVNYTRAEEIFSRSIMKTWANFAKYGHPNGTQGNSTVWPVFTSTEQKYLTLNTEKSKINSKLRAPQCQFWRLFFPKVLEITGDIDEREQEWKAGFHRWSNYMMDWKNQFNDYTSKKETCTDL
The target in assay [1] is Acetylcholinesterase and butyrylcholinesterase (AChE and BChE) (Rattus norvegicus) (UniProt P37136+Q9JKC1). The assay is described as follows: Ratio of inhibitory concentration for AChE and BChE. The format is protein assay.
Chain of Acetylcholinesterase and butyrylcholinesterase (AChE and BChE) (Rattus norvegicus) (Q9JKC1 1-597, one chain of several): as the sequence (Q9JKC1 whole entry) above

Turning to `CC1=CC2Cc3[nH]c(=O)ccc3[C@@]3(C1)[C@@H]2CCCN3C(=O)CN1CCN(Cc2ccccc2)CC1`, half-maximal inhibition on Acetylcholinesterase (IC50) required 33.3 µM.

In turn, `COc1ccc(CN2CCN(CN3CCC[C@@H]4[C@H]5C=C(C)C[C@]43c3ccc(O)nc3C5)CC2)cc1` showed an IC50 against Acetylcholinesterase of 10.3 µM. `CC1=C[C@H]2Cc3nc(O)ccc3[C@@]3(C1)[C@@H]2CCCN3CCN1CCN(Cc2cccnc2)CC1` returned an IC50 on Acetylcholinesterase of 26.7 µM. The same measure, in the same setting: then `CC1=C[C@H]2Cc3[nH]c(=O)ccc3[C@@]3(C1)[C@@H]2CCCN3CCN(Cc1ccccc1)c1ccccc1`, with above 54 µM. Still for that read-out and setting: for `CC1=CC2Cc3[nH]c(=O)ccc3[C@@]3(C1)[C@@H]2CCCN3C(=O)CN1CCN(Cc2ccc([N+](=O)[O-])cc2)CC1` the value was 5.58 µM. Take `CC1=C[C@H]2Cc3[nH]c(=O)ccc3[C@@]3(C1)[C@@H]2CCCN3CCN1CCCN(CCN2CCC[C@@H]3[C@H]4C=C(C)C[C@]32c2ccc(=O)[nH]c2C4)CC1`: the IC50 was determined as 125 µM at Butyrylcholinesterase and 0.218 µM at Acetylcholinesterase. Moreover, the Selectivity in assay [1] is 573.

For `CC1=C[C@H]2Cc3nc(O)ccc3[C@@]3(C1)[C@@H]2CCCN3C(=O)CN(Cc1ccccc1)c1ccccc1`, the IC50 on Acetylcholinesterase was above 52 µM.

With `COc1ccc(CN2CCN(CC(=O)N3CCC[C@@H]4C5C=C(C)C[C@]43c3ccc(=O)[nH]c3C5)CC2)cc1`, on Acetylcholinesterase, the IC50 stood at 5.75 µM. On Acetylcholinesterase, `CC1=C[C@H]2Cc3[nH]c(=O)ccc3[C@@]3(C1)[C@@H]2CCCN3C(=O)CN(C)Cc1ccccc1` had an IC50 of 50.7 µM. Still for that read-out and setting: then `CC1=CC2Cc3[nH]c(=O)ccc3[C@@]3(C1)[C@@H]2CCCN3C(=O)CN(C)CCCc1ccccc1`, with 6.19 µM. Turning to `CC1=C[C@H]2Cc3[nH]c(=O)ccc3[C@@]3(C1)[C@@H]2CCCN3C(=O)CN1CCCN(CC(=O)N2CCC[C@@H]3[C@H]4C=C(C)C[C@]32c2ccc(=O)[nH]c2C4)CC1`, the IC50 against Butyrylcholinesterase worked out at 171 µM; against Acetylcholinesterase it was 0.114 µM. Further, the Selectivity in assay [1] was found to be 1500. `CC1=CC2Cc3[nH]c(=O)ccc3[C@@]3(C1)[C@@H]2CCCN3C(=O)CN(C)CCc1ccccc1`: at Acetylcholinesterase, the IC50 worked out at 23.5 µM. Same read-out and setting: for `CC1=C[C@H]2Cc3nc(O)ccc3[C@@]3(C1)[C@@H]2CCCN3CCN(C)CCc1ccccc1` the value was 20.7 µM; for `CC1=C[C@H]2Cc3nc(O)ccc3[C@@]3(C1)[C@@H]2CCCN3C(=O)N1CCN(Cc2cccnc2)CC1`, 38.1 µM; for `CC1=C[C@H]2Cc3nc(O)ccc3[C@@]3(C1)[C@@H]2CCCN3CCN(C)Cc1ccccc1`, 66.5 µM. On the same count and under the same terms, then `CC1=C[C@H]2Cc3nc(O)ccc3[C@@]3(C1)[C@@H]2CCCN3CCN(C)CCCc1ccccc1`, with 9.53 µM.

As for `CC1=C[C@H]2Cc3[nH]c(=O)ccc3[C@@]3(C1)NCCC[C@H]23`, the IC50 against Butyrylcholinesterase stood at 157 µM. Take `CC1=CC2Cc3[nH]c(=O)ccc3[C@@]3(C1)[C@@H]2CCCN3CCN1CCN(CC[N+]2(C(=O)CN)CCC[C@@H]3C4C=C(C)C[C@]32c2ccc(=O)[nH]c2C4)CC1` (stereo partly drawn): the IC50 was 192 µM at Butyrylcholinesterase and 0.407 µM on Acetylcholinesterase. Besides, the Selectivity in assay [1] was 472. In the same order, the values of `CC1=C[C@H]2Cc3[nH]c(=O)ccc3[C@@]3(C1)[C@@H]2CCCN3C(=O)CN1CCN(CC(=O)N2CCC[C@@H]3[C@H]4C=C(C)C[C@]32c2ccc(=O)[nH]c2C4)CC1` are above 184 µM, 1.17 µM and above 157. Take `CC1=C[C@H]2Cc3nc(O)ccc3[C@@]3(C1)[C@@H]2CCCN3CN1CCN(Cc2ccccc2)CC1`: it took 31.6 µM to reach half-maximal inhibition against Acetylcholinesterase (IC50).
